Measured values from patent publication US7914769B2, “Compounds for treating human papillomavirus” (priority 2004, dated 2011).

Assays:
[1] = target: E6 (Human papillomavirus type 16, UniProt P03126); assay: E6 inhibition (IC50, assay not specified); type: biochemical
Excerpt: In some embodiments, the interaction of a compound described herein with E6 protein can be assayed in vitro, using routine techniques. In some in vitro assays, the ability of a compound described herein to inhibit the binding of E6 protein to an E6 binding protein can be tested. For example, the E6 protein can be labeled, e.g., radiolabeled, mixed with a compound described herein, and the binding of E6 protein to a binding protein, e.g., E6BP or E6AP, can be determined. Binding efficiency can be calculated as percent input bound minus background. Other in vitro assays can involve indirect measurements of the ability of a compound described herein to inhibit the binding of E6 protein to an E6 binding protein. For example, in vitro p53 degradation experiments can be performed, e.g., as described by Crook et al. (Cell, 67:547-556 (1991)). The IC50 for binding and p53 degradation for the compounds described herein can be tabulated using routine methods.
“IC50” as used herein is the concentration of a compound that produces half-maximal inhibition of protein activity, e.g., E6 activity.

[2] = target: HPV E6 protein (Human papillomavirus type 16, UniProt P03126); assay: In vitro p53 degradation assay (E6 and p53 made in rabbit reticulocyte lysate)
Sequence of HPV E6 protein (P03126 whole entry): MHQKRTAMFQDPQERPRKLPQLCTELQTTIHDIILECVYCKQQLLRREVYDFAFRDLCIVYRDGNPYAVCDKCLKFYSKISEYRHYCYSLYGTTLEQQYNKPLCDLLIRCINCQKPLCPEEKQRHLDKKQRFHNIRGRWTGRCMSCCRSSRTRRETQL

Sequence of E6 (P03126 whole entry): as above

## CCN(C(=O)c1cc2ccccc2cc1O)c1ccccc1
[1]
  IC50: 100 to 200 nM
[2]
  IC50: 1000 to 2000 nM
